{
  "source": "patent US20240416143A1",
  "about": "“PHOTONIC ANTIMICROBIAL WOUND SURFACE DRESSING” (The General Hospital Corporation, priority 2021, published 2024)",
  "key": {"E. coli": {"test_system": "E. coli", "assay": "MIC of menadione by broth microdilution, with or without aBL", "assay_type": "cell-based, Escherichia coli ATCC 25922", "protocol": "(§1) The MICs of menadione in different bacterial strains were determined by a standard broth microdilution assay according to the Clinical and Laboratory Standards Institute. Briefly, menadione was prepared at 100 mg/mL in Tween 80/DMSO (1:1) as a stock solution. The stock solution was diluted to 2048 μg/mL in BHI and then serial dilutions were performed to 1024-0.015 μg/mL in a 96-well plate. Then, a 10 μL stationary growth-phase culture of 10^8 CFU/mL bacteria in BHI broth was added to the 96-well plate containing the serial dilutions of menadione. The medium containing a similar amount of Tween 80/DMSO (1:1) served as a control. The microplates were incubated at 37° C. for 24 hours and the lowest concentration of the compound capable of completely inhibiting bacterial growth was referred to as the MIC.\n(§2) However, we investigated the effects of aBL (50 mW/cm^2) in potentiating the antibacterial activities of menadione in the three strains of bacteria. […] The highest fluence that we investigated was 125 J/cm^2, when we irradiated the bacteria for 42 minutes."}, "MRSA [1]": {"test_system": "MRSA", "assay": "MIC of menadione by broth microdilution, with or without aBL", "assay_type": "cell-based, methicillin-resistant Staphylococcus aureus", "conditions": "for MIC: Staphylococcus aureus, MRSA, light or radiation study", "protocol": "as §1, §2"}, "NorA efflux pump": {"molecular_target": "NorA efflux pump (Staphylococcus aureus, UniProt P0A0J7)", "sequence (P0A0J7 whole entry)": "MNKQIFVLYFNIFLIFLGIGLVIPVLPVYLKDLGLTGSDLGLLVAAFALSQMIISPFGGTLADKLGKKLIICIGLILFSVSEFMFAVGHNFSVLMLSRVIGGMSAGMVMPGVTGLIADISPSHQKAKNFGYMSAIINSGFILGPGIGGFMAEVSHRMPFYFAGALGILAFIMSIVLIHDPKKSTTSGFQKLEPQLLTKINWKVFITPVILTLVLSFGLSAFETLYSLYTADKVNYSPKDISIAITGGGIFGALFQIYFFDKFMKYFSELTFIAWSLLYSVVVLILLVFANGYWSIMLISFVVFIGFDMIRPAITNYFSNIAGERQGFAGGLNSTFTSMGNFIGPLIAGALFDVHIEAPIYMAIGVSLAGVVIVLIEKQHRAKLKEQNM", "conditions": "cited from earlier work"}, "MRSA biofilm": {"test_system": "MRSA biofilm", "assay": "Photoinactivation of 48-hour in vitro biofilms by adjuvant/antibiotic + antimicrobial blue light", "assay_type": "cell-based, methicillin-resistant Staphylococcus aureus", "conditions": "for Bacterial Log10 CFU/mL Reduction after menadione + aBL: MRSA USA 300 biofilm 48 h", "protocol": "The bacterial suspension was grown in a shaking incubator overnight in BHI broth. Cells were collected by centrifugation at 4,000 rpm for 5 minutes and suspended in PBS at a density of 10^6 CFU/mL. Then, the biofilms were grown for 48 hours (unless otherwise specified) in 96-well microtiter plates as described previously [Ref. 27], with a renewal of the media every 24 hours. Following the 48-hour biofilm growth, fresh 200 μL of PBS with or without menadione in different concentrations were added to the wells and the biofilms were incubated in the dark at 25° C. for 1 hour: 0, 0.5, 1, and 2 μg/mL for MRSA USA300, AF0001, IQ0064; 0, 1, 10, 30 and 50 μg/mL for P. aeruginosa PA01; and 0, 100, and 150 μg/mL for E. coli ATCC 25922. After that, the control and the menadione-treated biofilms were maintained without irradiation (“menadione/dark”). Simultaneously, the aBL was delivered to the other biofilm groups testing different power densities (50, 30, 15, and 10 mW/cm^2) while keeping the same radiant exposure of 250 J/cm^2. After the light exposure, the biofilms were carefully washed two times with PBS and 200 μL of PBS was added to each well. Then, the bacterial biofilms in each well were harvested by scratching with a sterile pipette tip and three wells of each group were pooled together in a 1.5 mL microcentrifuge tube. The total volume obtained, 600 μL (3 wells), was sonicated using a Branson 2510 Water Bath Sonicator (Marshall Scientific, LLC) for 5 minutes and the CFU was determined by 10-fold serial dilutions in PBS on BHI agar plates. CFU was counted after overnight incubation at 37° C. Experiments were performed in triplicate.\nA bacterial suspension was grown in a shaking incubator overnight in BHI broth. Cells were collected by centrifugation at 4,000 rpm for 5 minutes and suspended in PBS at a density of 10^6 CFU/mL. Then, the biofilms were grown for 48 hours in 96-well microtiter plates with a renewal of the media every 24 hours. Following the 48-hour biofilm growth, fresh 200 μL of PBS with the tetracyclines minocycline, doxycycline, and demeclocycline in different concentrations were added to the wells and the biofilms were incubated in the dark at 25° C. for 1 hour: 0, 0.25, 0.5, and 1 μg/mL for minocycline; 0, 0.5, 1, and 2 μg/mL for doxycycline; and 0, 0.5, 1, and 2 for demeclocycline. After that, the control and the tetracycline-treated biofilms were maintained without irradiation (“menadione/dark”). Simultaneously, the aBL (405 nm) was delivered to the other biofilm groups testing different power densities (50, 30 mW/cm^2) while keeping the radiant exposures of 50-250 J/cm^2. After the light exposure, the biofilms were carefully washed two times with PBS and 200 μL of PBS was added to each well. Then, the bacterial biofilms in each well were harvested by scratching with a sterile pipette tip and three wells of each group were pooled together in a 1.5 mL microcentrifuge tube. The total volume obtained, 600 μL (3 wells), was sonicated using a Branson 2510 Water Bath Sonicator (Marshall Scientific, LLC) for 5 minutes and the CFU/mL was determined by 10-fold serial dilutions in PBS on BHI agar plates. CFU was counted after overnight incubation at 37° C."}, "MRSA [2]": {"test_system": "MRSA", "assay": "Photoinactivation of planktonic cultures by menadione + antimicrobial blue light", "assay_type": "cell-based, methicillin-resistant Staphylococcus aureus", "conditions": "menadione ⅛ MIC + aBL 90 J/cm^2 (50 mW/cm^2), 405 nm", "protocol": "The bacterial cells were grown in BHI broth medium shaken overnight. Cells were collected by centrifugation at 4,000 rpm for 5 minutes and suspended in PBS at a density of 10^8 colony-forming units (CFU)/mL (estimated by measuring the optical density at 600 nm; O.D 0.1=10^8 cells/mL). The microbial suspension in PBS was transferred to a 35×12-mm dish and mixed with different concentrations of menadione: 0, 0.5, 1 and 2 μg/mL for MRSA USA300, AF003 and IQ0064; 0, 1, 10 and 30 μg/mL for P. aeruginosa PA01; and 0, 16, 32, 64 and 128 μg/mL for E. coli ATCC 25922. After incubation in the dark at 25° C. for 1 hour, the planktonic suspension of cells at room temperature was irradiated using aBL (405 nm) at 50 mW/cm^2 with different radiant exposures (0-250 J/cm^2). During the aBL irradiation, 40 μL of samples were withdrawn every 15 minutes, and the CFUs were determined by 10-fold serial dilutions in PBS (10-1 to 10-7 dilution factors), plated on BHI agar plates as described previously [Ref. 17]. CFUs were counted after overnight incubation at 37° C. Experiments were performed in triplicate."}},
  "note": "Where two headings read alike, the source gives them in different places.",
  "data": [
    {"compound": "CC1=CC(=O)c2ccccc2C1=O", "note": "[menadione, 2-methyl-1,4-naphthoquinone]", "values": [
      {"measurement": "MIC", "setting": "E. coli; Escherichia coli, light or radiation study, 5 min, aBL 15.62 J/cm^2 (5 mins.), 50 mW/cm^2, read-out: MIC", "result": 256, "unit": "mg/L"},
      {"measurement": "MIC", "setting": "E. coli; Escherichia coli, light or radiation study, 0.175 h, aBL 31.25 J/cm^2 (10.5 mins.), 50 mW/cm^2, read-out: MIC", "result": 256, "unit": "mg/L"},
      {"measurement": "MIC", "setting": "E. coli; Escherichia coli, light or radiation study, 0.35 h, aBL 62.5 J/cm^2 (21 mins.), 50 mW/cm^2, read-out: MIC", "result": 4, "unit": "mg/L"},
      {"measurement": "MIC", "setting": "E. coli; Escherichia coli, light or radiation study, 0 J/cm^2 (Dark), read-out: MIC", "result": 512, "unit": "mg/L"},
      {"measurement": "MIC", "setting": "E. coli; aBL 125 J/cm^2 (42 mins.), 50 mW/cm^2", "result": "completely eradicated"},
      {"measurement": "MIC", "setting": "MRSA [1]; 5 min, aBL 15.62 J/cm^2 (5 mins.), 50 mW/cm^2", "result": 8, "unit": "mg/L"},
      {"measurement": "MIC", "setting": "MRSA [1]; 0.175 h, aBL 31.25 J/cm^2 (10.5 mins.), 50 mW/cm^2", "result": 4, "unit": "mg/L"},
      {"measurement": "MIC", "setting": "MRSA [1]; 0.35 h, aBL 62.5 J/cm^2 (21 mins.), 50 mW/cm^2", "result": 1, "unit": "mg/L"},
      {"measurement": "MIC", "setting": "MRSA [1]; 0.7 h, aBL 125 J/cm^2 (42 mins.), 50 mW/cm^2", "result": 0.0625, "unit": "mg/L"},
      {"measurement": "MIC", "setting": "MRSA [1]; 0 J/cm^2 (Dark)", "result": 8, "unit": "mg/L"},
      {"measurement": "lowering of MIC by aBL", "setting": "MRSA [1]; aBL 125 J/cm^2 vs dark", "result": 78, "unit": "%"},
      {"measurement": "inhibition of efflux pump gene expression and efflux pump function", "setting": "NorA efflux pump", "result": "significant inhibition"},
      {"measurement": "biofilm reduction by menadione without irradiation", "setting": "MRSA biofilm; 48 h biofilm, dark", "result": "< 1", "unit": "log killing"},
      {"measurement": "biofilm killed by menadione plus aBL", "setting": "MRSA biofilm; 48 h biofilm, 1 μg/mL menadione + aBL 250 J/cm^2 (50 mW/cm^2)", "result": 4.85, "unit": "log10 CFU/mL"},
      {"measurement": "biofilm killed by menadione plus aBL", "setting": "MRSA biofilm; 48 h biofilm, 1 μg/mL menadione + aBL 250 J/cm^2 at 15 mW/cm^2", "result": 3.01, "unit": "log10 CFU/mL"},
      {"measurement": "Bacterial Log10 CFU/mL Reduction after menadione + aBL", "setting": "MRSA biofilm; 10 mW/cm^2, 250 J/cm^2, 6 hours 56 minutes", "result": "−1.91", "unit": "Log10 CFU/mL"},
      {"measurement": "Bacterial Log10 CFU/mL Reduction after menadione + aBL", "setting": "MRSA biofilm; 15 mW/cm^2, 250 J/cm^2, 4 hours 37 minutes", "result": "−3.01", "unit": "Log10 CFU/mL"},
      {"measurement": "Bacterial Log10 CFU/mL Reduction after menadione + aBL", "setting": "MRSA biofilm; 30 mW/cm^2, 250 J/cm^2, 2 hours 18 minutes", "result": "−2.28", "unit": "Log10 CFU/mL"},
      {"measurement": "Bacterial Log10 CFU/mL Reduction after menadione + aBL", "setting": "MRSA biofilm; 50 mW/cm^2, 250 J/cm^2, 1 hours 23 minutes", "result": "−4.85", "unit": "Log10 CFU/mL"},
      {"measurement": "Bacterial Log10 CFU/mL Reduction after menadione + aBL", "setting": "MRSA biofilm; power density 0 mW/cm^2", "result": 0, "unit": "Log10 CFU/mL"},
      {"measurement": "eradication by aBL combined with menadione", "setting": "MRSA [2]", "result": 4.59, "unit": "log10 CFU/mL"}
    ]}
  ]
}
